Among the data in paper PMC8799717, “Pharmacological targeting PIKfyve and tubulin as an effective treatment strategy for double-hit lymphoma” (Cell Death Discovery, 2022) are remaining binding values, retold here.

Targets include TTK (Homo sapiens, UniProt P33981); PIK3CB (Homo sapiens, UniProt P42338); TAOK3 (Homo sapiens, UniProt Q9H2K8); MTOR (Homo sapiens, UniProt P42345); CAMK2A (Homo sapiens, UniProt Q9UQM7); FLT3(ITD) (Homo sapiens, UniProt P36888, ITD); RIOK3 (Homo sapiens, UniProt O14730); KIT(V559D) (Homo sapiens, UniProt P10721, V559D); EIF2AK1 (Homo sapiens, UniProt Q9BQI3); MYLK (Homo sapiens, UniProt Q15746); ERBB4 (Homo sapiens, UniProt Q15303).

What all share (assay): biochemical
Common to all, as to set-up: KINOMEscan active-site-directed competition binding panel, 468 kinases, percent of DMSO control at 1 uM
What all share (details): KINOMEscan binding, percent of DMSO control; read-out: Ctrl%

Assay [1] has as its target T1, TYK2(JH1domain-catalytic) (Homo sapiens, UniProt P29597).
T1 construct: JH1domain-catalytic

A further assay concerns the target T2, NIK (Homo sapiens, UniProt Q99558).
T2 construct: gene MAP3K14

The target in assay [2] is T3, ABL1(T315I)-phosphorylated (Homo sapiens, UniProt P00519, T315I).
T3 construct: phosphorylated

Assay [3] addresses T4, JAK2(JH1domain-catalytic) (Homo sapiens, UniProt O60674).
T4 construct: JH1domain-catalytic

A further assay concerns the target T5, HPK1 (Homo sapiens, UniProt Q92918).
T5 construct: gene MAP4K1

Another assay addresses T6, ADCK4 (Homo sapiens, UniProt Q96D53).
T6 construct: gene COQ8B

For another assay, the target named is T7, ASK2 (Homo sapiens, UniProt O95382).
T7 construct: gene MAP3K6

The next assay addresses T8, p38-gamma (Homo sapiens, UniProt P53778).
T8 construct: gene MAPK12

In assay [4] the target is T9, RSK3(Kin.Dom.2-C-terminal) (Homo sapiens, UniProt Q15349).
T9 construct: gene RPS6KA2; Kin.Dom.2-C-terminal

For the next assay, the target named is T10, VPS34 (Homo sapiens, UniProt Q8NEB9).
T10 construct: gene PIK3C3

A further assay has as its target T11, MLCK (Homo sapiens, UniProt Q32MK0).
T11 construct: gene MYLK3

In the next assay the target is T12, IKK-epsilon (Homo sapiens, UniProt Q14164).
T12 construct: gene IKBKE

EIF2AK1, sequence (Q9BQI3 whole entry): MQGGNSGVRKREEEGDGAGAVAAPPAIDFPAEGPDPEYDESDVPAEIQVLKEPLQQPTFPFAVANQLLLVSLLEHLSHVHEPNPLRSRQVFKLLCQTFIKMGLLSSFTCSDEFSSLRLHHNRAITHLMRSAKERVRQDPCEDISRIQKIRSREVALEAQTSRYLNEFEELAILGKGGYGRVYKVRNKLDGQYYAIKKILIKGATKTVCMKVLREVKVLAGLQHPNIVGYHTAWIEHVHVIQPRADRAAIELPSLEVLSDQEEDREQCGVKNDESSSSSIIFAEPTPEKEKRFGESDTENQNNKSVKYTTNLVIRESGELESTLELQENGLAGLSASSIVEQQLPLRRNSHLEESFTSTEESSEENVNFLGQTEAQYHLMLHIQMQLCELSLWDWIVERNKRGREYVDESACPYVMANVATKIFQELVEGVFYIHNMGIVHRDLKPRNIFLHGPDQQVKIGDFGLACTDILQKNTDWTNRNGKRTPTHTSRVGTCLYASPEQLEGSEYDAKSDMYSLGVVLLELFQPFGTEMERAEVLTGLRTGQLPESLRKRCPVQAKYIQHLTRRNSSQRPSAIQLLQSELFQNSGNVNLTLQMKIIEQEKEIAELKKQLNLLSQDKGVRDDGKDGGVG
T4 sequence (O60674 whole entry): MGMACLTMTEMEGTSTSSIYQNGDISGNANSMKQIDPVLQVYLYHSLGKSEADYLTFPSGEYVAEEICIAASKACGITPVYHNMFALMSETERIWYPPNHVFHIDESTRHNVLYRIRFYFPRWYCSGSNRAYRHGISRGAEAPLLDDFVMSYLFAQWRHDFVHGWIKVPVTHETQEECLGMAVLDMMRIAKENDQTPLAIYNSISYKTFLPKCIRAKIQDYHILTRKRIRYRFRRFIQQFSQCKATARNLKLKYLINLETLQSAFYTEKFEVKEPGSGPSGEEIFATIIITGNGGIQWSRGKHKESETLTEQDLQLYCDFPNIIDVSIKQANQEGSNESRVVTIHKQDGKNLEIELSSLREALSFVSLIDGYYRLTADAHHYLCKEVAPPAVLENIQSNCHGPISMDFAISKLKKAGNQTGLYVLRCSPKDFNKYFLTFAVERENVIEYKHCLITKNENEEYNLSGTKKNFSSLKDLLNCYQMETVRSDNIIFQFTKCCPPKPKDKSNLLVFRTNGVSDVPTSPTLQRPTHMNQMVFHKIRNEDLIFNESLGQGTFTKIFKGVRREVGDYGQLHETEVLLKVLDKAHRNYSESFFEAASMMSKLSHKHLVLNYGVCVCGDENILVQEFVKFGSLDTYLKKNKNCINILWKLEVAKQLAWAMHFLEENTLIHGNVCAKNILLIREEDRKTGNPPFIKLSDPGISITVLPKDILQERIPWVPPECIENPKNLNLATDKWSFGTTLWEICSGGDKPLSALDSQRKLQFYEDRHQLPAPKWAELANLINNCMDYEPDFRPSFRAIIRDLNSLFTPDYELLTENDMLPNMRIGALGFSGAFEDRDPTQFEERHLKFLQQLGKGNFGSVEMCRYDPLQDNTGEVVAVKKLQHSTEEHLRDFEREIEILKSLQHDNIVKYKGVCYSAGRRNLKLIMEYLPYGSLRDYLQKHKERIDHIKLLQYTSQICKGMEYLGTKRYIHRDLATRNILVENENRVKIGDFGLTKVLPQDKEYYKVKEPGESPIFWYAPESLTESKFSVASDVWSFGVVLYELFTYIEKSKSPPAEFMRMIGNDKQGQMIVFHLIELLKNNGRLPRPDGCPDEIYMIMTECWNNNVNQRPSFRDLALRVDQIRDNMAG
T1 sequence (P29597 whole entry): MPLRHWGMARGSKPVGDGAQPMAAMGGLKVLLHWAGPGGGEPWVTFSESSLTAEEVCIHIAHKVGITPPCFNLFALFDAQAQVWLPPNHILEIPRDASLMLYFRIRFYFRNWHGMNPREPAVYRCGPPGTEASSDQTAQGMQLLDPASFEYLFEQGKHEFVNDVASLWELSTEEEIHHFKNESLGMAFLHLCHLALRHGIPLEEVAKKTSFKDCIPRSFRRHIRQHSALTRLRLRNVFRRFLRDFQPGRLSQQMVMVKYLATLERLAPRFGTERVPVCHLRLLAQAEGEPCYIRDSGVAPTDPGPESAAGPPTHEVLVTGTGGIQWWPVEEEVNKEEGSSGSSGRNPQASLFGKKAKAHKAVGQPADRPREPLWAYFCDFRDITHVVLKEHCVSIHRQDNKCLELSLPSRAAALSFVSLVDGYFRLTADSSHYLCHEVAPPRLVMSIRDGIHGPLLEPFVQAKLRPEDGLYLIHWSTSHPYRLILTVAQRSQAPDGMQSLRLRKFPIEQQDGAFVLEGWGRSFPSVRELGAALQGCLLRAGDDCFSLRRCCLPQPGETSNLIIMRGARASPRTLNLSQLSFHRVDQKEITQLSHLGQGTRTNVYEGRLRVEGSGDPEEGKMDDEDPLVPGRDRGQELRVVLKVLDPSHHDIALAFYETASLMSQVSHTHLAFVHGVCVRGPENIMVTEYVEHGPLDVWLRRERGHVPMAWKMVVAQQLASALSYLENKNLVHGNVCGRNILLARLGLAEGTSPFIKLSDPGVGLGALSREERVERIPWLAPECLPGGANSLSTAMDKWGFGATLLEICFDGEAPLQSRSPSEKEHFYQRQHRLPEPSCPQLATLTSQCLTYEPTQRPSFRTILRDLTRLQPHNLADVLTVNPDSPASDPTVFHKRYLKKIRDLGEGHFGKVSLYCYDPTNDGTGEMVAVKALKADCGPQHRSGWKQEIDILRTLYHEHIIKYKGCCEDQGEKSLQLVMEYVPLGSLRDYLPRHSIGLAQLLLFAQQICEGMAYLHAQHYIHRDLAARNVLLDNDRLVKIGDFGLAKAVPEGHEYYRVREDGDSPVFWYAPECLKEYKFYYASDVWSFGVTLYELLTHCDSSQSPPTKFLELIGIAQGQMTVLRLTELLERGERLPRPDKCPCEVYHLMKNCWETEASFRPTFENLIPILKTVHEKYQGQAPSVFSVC
PIK3CB, sequence (P42338 whole entry): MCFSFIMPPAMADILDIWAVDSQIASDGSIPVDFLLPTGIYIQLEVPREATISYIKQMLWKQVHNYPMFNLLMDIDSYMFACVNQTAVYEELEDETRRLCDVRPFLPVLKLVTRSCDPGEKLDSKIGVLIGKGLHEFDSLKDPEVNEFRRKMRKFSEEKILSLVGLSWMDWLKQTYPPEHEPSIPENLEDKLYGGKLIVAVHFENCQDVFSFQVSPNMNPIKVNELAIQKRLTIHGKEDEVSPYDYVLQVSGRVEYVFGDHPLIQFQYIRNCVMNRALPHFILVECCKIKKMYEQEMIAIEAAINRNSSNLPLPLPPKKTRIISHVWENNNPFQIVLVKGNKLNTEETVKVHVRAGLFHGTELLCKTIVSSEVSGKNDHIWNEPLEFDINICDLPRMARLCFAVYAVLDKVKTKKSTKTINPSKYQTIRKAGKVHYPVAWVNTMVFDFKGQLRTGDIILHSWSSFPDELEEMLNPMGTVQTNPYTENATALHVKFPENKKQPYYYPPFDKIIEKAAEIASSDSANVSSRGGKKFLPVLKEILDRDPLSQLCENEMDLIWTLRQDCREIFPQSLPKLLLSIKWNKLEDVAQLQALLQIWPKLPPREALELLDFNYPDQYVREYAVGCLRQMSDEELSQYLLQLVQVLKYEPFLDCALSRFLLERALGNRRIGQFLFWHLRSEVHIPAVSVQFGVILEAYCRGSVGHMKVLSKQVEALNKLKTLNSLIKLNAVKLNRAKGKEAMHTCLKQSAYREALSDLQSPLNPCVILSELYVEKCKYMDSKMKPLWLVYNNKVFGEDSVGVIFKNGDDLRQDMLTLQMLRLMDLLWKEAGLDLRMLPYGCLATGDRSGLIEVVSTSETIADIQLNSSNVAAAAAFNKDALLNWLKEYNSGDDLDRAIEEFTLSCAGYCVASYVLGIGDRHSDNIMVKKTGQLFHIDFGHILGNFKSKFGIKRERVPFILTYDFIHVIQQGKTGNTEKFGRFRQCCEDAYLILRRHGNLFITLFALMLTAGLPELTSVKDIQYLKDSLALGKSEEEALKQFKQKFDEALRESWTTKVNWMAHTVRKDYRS
T11 sequence (Q32MK0 whole entry): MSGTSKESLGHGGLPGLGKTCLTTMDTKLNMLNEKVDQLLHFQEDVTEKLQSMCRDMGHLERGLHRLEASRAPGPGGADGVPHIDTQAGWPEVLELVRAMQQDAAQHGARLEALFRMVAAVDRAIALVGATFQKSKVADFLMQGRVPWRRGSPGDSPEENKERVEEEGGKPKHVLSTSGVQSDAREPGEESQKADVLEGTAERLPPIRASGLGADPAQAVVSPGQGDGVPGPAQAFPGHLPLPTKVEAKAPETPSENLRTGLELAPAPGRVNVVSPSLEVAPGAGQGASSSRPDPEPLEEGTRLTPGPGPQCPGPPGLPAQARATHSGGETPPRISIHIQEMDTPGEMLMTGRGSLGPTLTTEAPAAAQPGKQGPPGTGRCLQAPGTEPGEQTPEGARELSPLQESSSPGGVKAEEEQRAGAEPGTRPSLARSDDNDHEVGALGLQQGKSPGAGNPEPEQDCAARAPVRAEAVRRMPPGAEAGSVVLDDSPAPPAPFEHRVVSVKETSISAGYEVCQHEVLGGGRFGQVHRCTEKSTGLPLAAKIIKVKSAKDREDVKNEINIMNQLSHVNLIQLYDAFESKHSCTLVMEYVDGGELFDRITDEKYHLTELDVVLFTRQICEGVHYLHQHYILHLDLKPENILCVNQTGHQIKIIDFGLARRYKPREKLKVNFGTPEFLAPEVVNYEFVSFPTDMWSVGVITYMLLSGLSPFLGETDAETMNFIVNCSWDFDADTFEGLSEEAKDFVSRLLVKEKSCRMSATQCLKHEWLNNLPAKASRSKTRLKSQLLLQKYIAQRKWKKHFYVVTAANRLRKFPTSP

As for `Cc1ccc(NC(=O)c2cccc(C(F)(F)F)c2)cc1Nc1cc(-c2cccnc2)nc2[nH]ccc12` [HZX-02-059], the remaining binding at 1 µM was found to be 100% in [1]; 99% at TTK; 74% on PIK3CB; 61% at NIK; 100% at TAOK3; 99% on MTOR. Also, the remaining binding at 1 µM in assay [2] amounted to 98%; at CAMK2A it was 98%; in assay [3] it was 100%; on HPK1 it was 72%; on ADCK4, 91%; on FLT3(ITD), 79%. The remaining binding at 1 µM at ASK2 is 66%; at RIOK3 it was 100%; at KIT(V559D), 0.9%; at EIF2AK1 it was 79%; at p38-gamma, 92%; on MYLK, 100%. Besides, the remaining binding at 1 µM was 89% in assay [4]; 79% at VPS34; 86% at ERBB4; 100% at MLCK; 70% on IKK-epsilon.
